# Source: ChEMBL document CHEMBL5046245, “Identification of Pyruvate Carboxylase as the Cellular Target of Natural Bibenzyls with Potent Anticancer Activity against Hepatocellular Carcinoma via Metabolic Reprogramming” (J Med Chem, 2022)
# Calls of active or inactive are those of the source. The calls are words filed in the database; no cut-off is given here.
# Experiments:
# [1] = test system: HepG2; experiment: Effect on cell cycle arrest in human HepG2 cells assessed as increase in accumulation of cells in G2/M phase at 20 to 80 nM incubated for 24 hrs by propidium iodide staining based flow cytometry analysis; type: functional; conditions: dose 20-80 nM, TDE = time-dependent effect
# [2] = test system: HepG2; experiment: Induction of apoptosis in human HepG2 cells xenografted in NCR-nu/nu mouse assessed as increase in total apoptotic cells in tumor at 50 mg/kg, ip administered alternate days for 21 days and measured 26 days post implantation by TUNEL staining based confocal microscopic analysis; type: functional, organism-based; conditions: time 21.0 day
# [3] = Inhibition of pyruvate carboxylase in human HepG2 cell lysate measured upto 24 hrs by PC assay kit; type: subcellular
# [4] = test system: HepG2; experiment: Inhibition of pyruvate carboxylase in human HepG2 cells measured at 10 nM upto 24 hrs; type: cell-based; conditions: time hrs <=24
# [5] = test system: HCCLM3; experiment: Antimigratory activity against PC knockout human HCCLM3 cells assessed as suppression of cell migration at 0.5 nM measured after 48 hrs by wound healing assay; type: functional, cell-based
# [6] = test system: HCCLM3; experiment: Induction of glycolysis in human HCCLM3 cells assessed as decrease in level of ATP at 5 nM; type: functional, cell-based
# [7] = test system: HCCLM3; experiment: Induction of mitochondrial oxidative stress in human HCCLM3 cells assessed as accumulation of ROS at 10 nM by DCFH-DA staining based flow cytometry analysis; type: functional, cell-based; conditions: TDE = time-dependent effect
# [8] = test system: HCCLM3; experiment: Induction of apoptosis in human HCCLM3 cells assessed as nuclear condensation at 20 nM incubated for 24 hrs by DAPI staining based phase contrast microscopic analysis; type: functional, cell-based
smiles,measurement,setting,value
COc1ccc(CCc2cc(OC)c(OC)c(OC)c2)cc1O,Activity,[1],Tde
same,Activity,[2],Active
same,IC50,[3],7.18 nM
same,inhibition,[4],inactive
same,Activity,[5],Active
same,Activity,[6],Active
same,Activity,[7],Tde
same,Activity,[8],Active
